The test has as its system MV-4-11 cells. As to the kind of experiment: Gene expression microarray analysis (Affymetrix PrimeView) and GSEA. It is filed as cell-based, human. On the set-up: RFU PODN (11730768_x_at) / Fold change /veh PODN (11730768_x_at) / RFU LINC00158 (11744669_a_at) / Fold change /veh LINC00158 (11744669_a_at) / RFU DUSP10 (11751237_a_at) / Fold change /veh DUSP10 (11751237_a_at) / RFU ID3 (11757404_x_at) / Fold change /veh ID3 (11757404_x_at) / RFU PLEKHG5 (11737974_s_at) / Fold change /veh PLEKHG5 (11737974_s_at) / RFU LRRC4B (11730491_at) / Fold change /veh LRRC4B (11730491_at) / RFU GIMAP4 (11747438_a_at) / Fold change /veh GIMAP4 (11747438_a_at) / RFU KRT8 (11758183_x_at) / Fold change /veh KRT8 (11758183_x_at) / RFU CNN1 (11734310_a_at) / Fold change /veh CNN1 (11734310_a_at) / RFU VPS37D (11726825_at) / Fold change /veh VPS37D (11726825_at) / RFU C10orf10 (11716522_x_at) / Fold change /veh C10orf10 (11716522_x_at) / RFU KIR2DL2 /// KIR2DL4 /// KIR2DL5A /// KIR2DL5B /// KIR2DS1 /// KIR2DS2 /// KIR2DS3 /// KIR2DS4 /// KIR3DL3 /// KIR3DL3 /// KIR3DS1 (11738374_at) / Fold change /veh KIR2DL2 /// KIR2DL4 /// KIR2DL5A /// KIR2DL5B /// KIR2DS1 /// KIR2DS2 /// KIR2DS3 /// KIR2DS4 /// KIR3DL3 /// KIR3DL3 /// KIR3DS1 (11738374_at) / RFU C1QL1 (11718748_at) / Fold change /veh C1QL1 (11718748_at) / RFU TMPRSS4 (11747572_a_at) / Fold change /veh TMPRSS4 (11747572_a_at) / RFU HAMP (11756126_x_at) / Fold change /veh HAMP (11756126_x_at) / RFU RNFT2 (11725882_a_at) / Fold change /veh RNFT2 (11725882_a_at) / RFU NR4A2 (11747474_a_at) / Fold change /veh NR4A2 (11747474_a_at) / RFU ABCC12 (11746883_a_at) / Fold change /veh ABCC12 (11746883_a_at) / RFU TMEM136 (11760407_x_at) / Fold change /veh TMEM136 (11760407_x_at) / RFU CLDN22 /// WWC2 (11732394_at) / Fold change /veh CLDN22 /// WWC2 (11732394_at) / RFU HLA-DPB1 (11760878_x_at) / Fold change /veh HLA-DPB1 (11760878_x_at) / RFU SPINT1 (11716480_a_at) / Fold change /veh SPINT1 (11716480_a_at) / RFU GAP43 (11754022_s_at) / Fold change /veh GAP43 (11754022_s_at) / RFU A4GNT (11735810_at) / Fold change /veh A4GNT (11735810_at) / RFU PRB3 (11715151_x_at) / Fold change /veh PRB3 (11715151_x_at) / RFU TUBB4B (11761932_at) / Fold change /veh TUBB4B (11761932_at) / RFU CAPN14 (11732068_a_at) / Fold change /veh CAPN14 (11732068_a_at) / RFU TMCC2 (11721928_a_at) / Fold change /veh TMCC2 (11721928_a_at) / RFU IRGQ (11745062_a_at) / Fold change /veh IRGQ (11745062_a_at) / RFU FAM174B (11720279_a_at) / Fold change /veh FAM174B (11720279_a_at) / RFU TMPRSS4 (11748680_a_at) / Fold change /veh TMPRSS4 (11748680_a_at) / RFU FAM212B (11763350_a_at) / Fold change /veh FAM212B (11763350_a_at) / RFU PLEKHG5 (11743358_a_at) / Fold change /veh PLEKHG5 (11743358_a_at) / RFU ZSCAN30 (11745921_a_at) / Fold change /veh ZSCAN30 (11745921_a_at) / RFU CMKLR1 (11741424_a_at) / Fold change /veh CMKLR1 (11741424_a_at) / RFU LOC101060620 /// MAPK8IP1 (11723275_at) / Fold change /veh LOC101060620 /// MAPK8IP1 (11723275_at) / RFU SPTSSB (11747773_x_at) / Fold change /veh SPTSSB (11747773_x_at) / RFU PRSS12 (11739890_at) / Fold change /veh PRSS12 (11739890_at) / RFU BIN1 (11741810_x_at) / Fold change /veh BIN1 (11741810_x_at) / RFU WNT11 (11732464_a_at) / Fold change /veh WNT11 (11732464_a_at) / RFU C10orf10 (11716521_a_at) / Fold change /veh C10orf10 (11716521_a_at) / RFU C5orf56 (11738089_at) / Fold change /veh C5orf56 (11738089_at) / RFU CYB561 (11721691_x_at) / Fold change /veh CYB561 (11721691_x_at) / RFU ANKRD19P (11752326_a_at) / Fold change /veh ANKRD19P (11752326_a_at) / RFU OR2T12 /// OR2T33 /// OR2T8 (11738714_s_at) / Fold change /veh OR2T12 /// OR2T33 /// OR2T8 (11738714_s_at) / RFU VCAN (11748164_a_at) / Fold change /veh VCAN (11748164_a_at) / RFU JSRP1 (11732532_at) / Fold change /veh JSRP1 (11732532_at) / RFU KRTAP10-11 (11738290_x_at) / Fold change /veh KRTAP10-11 (11738290_x_at) / RFU MYO3A (11730013_a_at) / Fold change /veh MYO3A (11730013_a_at) / RFU EBF3 (11725865_a_at) / Fold change /veh EBF3 (11725865_a_at) / RFU CAMK2N1 (11719241_x_at) / Fold change /veh CAMK2N1 (11719241_x_at) / RFU C5orf56 (11738088_a_at) / Fold change /veh C5orf56 (11738088_a_at) / RFU OLFML3 (11715873_a_at) / Fold change /veh OLFML3 (11715873_a_at) / RFU LOC100653217 /// NTM (11731650_a_at) / Fold change /veh LOC100653217 /// NTM (11731650_a_at) / RFU MAPK11 (11762145_a_at) / Fold change /veh MAPK11 (11762145_a_at) / RFU FIZ1 (11724087_x_at) / Fold change /veh FIZ1 (11724087_x_at) / RFU OASL (11726364_x_at) / Fold change /veh OASL (11726364_x_at) / RFU SOX15 (11748057_x_at) / Fold change /veh SOX15 (11748057_x_at) / RFU CD79A (11719716_a_at) / Fold change /veh CD79A (11719716_a_at) / RFU HIST1H1D (11736915_at) / Fold change /veh HIST1H1D (11736915_at) / RFU CASKIN2 (11723855_a_at) / Fold change /veh CASKIN2 (11723855_a_at) / RFU LOC730098 (11760151_x_at) / Fold change /veh LOC730098 (11760151_x_at) / RFU OR4N2 (11742367_at) / Fold change /veh OR4N2 (11742367_at) / RFU PRRT2 (11749266_a_at) / Fold change /veh PRRT2 (11749266_a_at) / RFU SNX32 (11753110_a_at) / Fold change /veh SNX32 (11753110_a_at) / RFU CDHR5 (11726645_a_at) / Fold change /veh CDHR5 (11726645_a_at) / RFU RCAN1 (11760418_a_at) / Fold change /veh RCAN1 (11760418_a_at) / RFU FAM167A (11723789_a_at) / Fold change /veh FAM167A (11723789_a_at) / RFU FAM26E (11764081_at) / Fold change /veh FAM26E (11764081_at) / RFU ISYNA1 (11749810_s_at) / Fold change /veh ISYNA1 (11749810_s_at) / RFU ACY1 (11761880_at) / Fold change /veh ACY1 (11761880_at) / RFU 11764098_at / Fold change /veh 11764098_at / RFU SAMD14 (11745864_x_at) / Fold change /veh SAMD14 (11745864_x_at) / RFU NPB (11741838_a_at) / Fold change /veh NPB (11741838_a_at) / RFU TMPRSS6 (11731388_a_at) / Fold change /veh TMPRSS6 (11731388_a_at) / RFU KRTAP10-2 (11738614_at) / Fold change /veh KRTAP10-2 (11738614_at) / RFU ARHGAP8 /// PRR5-ARHGAP8 (11727945_x_at) / Fold change /veh ARHGAP8 /// PRR5-ARHGAP8 (11727945_x_at) / RFU KRTAP5-7 /// NADSYN1 (11734609_at) / Fold change /veh KRTAP5-7 /// NADSYN1 (11734609_at) / RFU RASL12 (11751679_a_at) / Fold change /veh RASL12 (11751679_a_at) / RFU CDKN2B (11736163_a_at) / Fold change /veh CDKN2B (11736163_a_at) / RFU PRF1 (11729649_at) / Fold change /veh PRF1 (11729649_at) / RFU, ZNF638 /// ZNF638-IT1 / Fold change vs veh, ZNF638 /// ZNF638-IT1 / RFU, PANK3 / Fold change vs veh, PANK3 / RFU, SH3YL1 / Fold change vs veh, SH3YL1 / RFU, ZEB2 / Fold change vs veh, ZEB2 / RFU, NRIP1 / Fold change vs veh, NRIP1 / RFU, PTTG1IP / Fold change vs veh, PTTG1IP / RFU, CAPN2 / Fold change vs veh, CAPN2 / RFU, MED14 / Fold change vs veh, MED14 / RFU, SNORA58 / Fold change vs veh, SNORA58 / RFU, C1orf63 / Fold change vs veh, C1orf63 / RFU, LRRFIP1 / Fold change vs veh, LRRFIP1 / RFU, NDUFAF7 / Fold change vs veh, NDUFAF7 / RFU, SLC12A2 / Fold change vs veh, SLC12A2 / RFU, IBTK / Fold change vs veh, IBTK / RFU, ESF1 / Fold change vs veh, ESF1 / Fold change vs veh, TMEM50B / RFU, TAOK1 / Fold change vs veh, TAOK1 / RFU, ACBD3 / Fold change vs veh, ACBD3 / RFU, TMA16 / Fold change vs veh, TMA16 / RFU, RWDD3 / Fold change vs veh, RWDD3 / RFU, BCAT1 / Fold change vs veh, BCAT1 / RFU, EDEM3 / Fold change vs veh, EDEM3 / RFU, TMEM33 / Fold change vs veh, TMEM33 / RFU, WDR75 / Fold change vs veh, WDR75 / RFU, AHCTF1 / Fold change vs veh, AHCTF1 / RFU, TFRC / Fold change vs veh, TFRC / RFU, ZDHHC17 / Fold change vs veh, ZDHHC17 / RFU, NOM1 / Fold change vs veh, NOM1 / RFU, ARL8B / Fold change vs veh, ARL8B / RFU, ZBTB11 / Fold change vs veh, ZBTB11 / RFU, TAMM41 / Fold change vs veh, TAMM41 / RFU, KIAA1704 /// LOC100996395 / Fold change vs veh, KIAA1704 /// LOC100996395 / RFU, ING1 / Fold change vs veh, ING1 / RFU, TRMT61B / Fold change vs veh, TRMT61B / RFU, FUBP3 / Fold change vs veh, FUBP3 / RFU, TP53 / Fold change vs veh, TP53 / RFU, TNKS2 / Fold change vs veh, TNKS2 / RFU, ZFP14 / Fold change vs veh, ZFP14 / RFU, ACTR2 / Fold change vs veh, ACTR2 / RFU, PPP3R1 / Fold change vs veh, PPP3R1 / RFU, PIK3R1 / Fold change vs veh, PIK3R1 / RFU, HNRNPA1 / Fold change vs veh, HNRNPA1 / RFU, RNF170 / Fold change vs veh, RNF170 / RFU, ZNF28 / Fold change vs veh, ZNF28 / RFU, RNGTT / Fold change vs veh, RNGTT / RFU, OGT / Fold change vs veh, OGT / RFU, BRD1 / Fold change vs veh, BRD1 / RFU, MARS / Fold change vs veh, MARS / RFU, ZNF655 / Fold change vs veh, ZNF655 / RFU, FAHD1 / Fold change vs veh, FAHD1 / RFU, BDP1 / Fold change vs veh, BDP1 / RFU, LRRCC1 / Fold change vs veh, LRRCC1 / RFU, ARID1A / Fold change vs veh, ARID1A / RFU, ZNF146 / Fold change vs veh, ZNF146 / RFU, ZNF330 / Fold change vs veh, ZNF330 / RFU, GPN3 / Fold change vs veh, GPN3 / RFU, C9orf123 / Fold change vs veh, C9orf123 / RFU, N4BP2L2 / Fold change vs veh, N4BP2L2 / RFU, ARFIP1 / Fold change vs veh, ARFIP1 / RFU, FAM179B / Fold change vs veh, FAM179B / RFU, BCL10 / Fold change vs veh, BCL10 / RFU, UHRF1BP1L / Fold change vs veh, UHRF1BP1L / RFU, BET1 / Fold change vs veh, BET1 / RFU, CNOT2 / Fold change vs veh, CNOT2 / RFU, ZNF268 / Fold change vs veh, ZNF268 / Fold change vs veh, ZNF507 / RFU, DGCR2 / Fold change vs veh, DGCR2 / RFU, WDSUB1 / Fold change vs veh, WDSUB1 / Fold change vs veh, HSP90B1 /// MIR3652 / RFU, ADSS / Fold change vs veh, ADSS / RFU, GK / Fold change vs veh, GK / RFU, ZNF148 / Fold change vs veh, ZNF148 / RFU, TAF9 / Fold change vs veh, TAF9 / RFU, SLC1A5 / Fold change vs veh, SLC1A5 / RFU, SLMO2 / Fold change vs veh, SLMO2 / RFU, ABCC4 / Fold change vs veh, ABCC4 / RFU, LOC101060439 /// RAP1B / Fold change vs veh, LOC101060439 /// RAP1B / RFU, RFX7 / Fold change vs veh, RFX7 / RFU, GTPBP10 / Fold change vs veh, GTPBP10 / RFU, CNEP1R1 / Fold change vs veh, CNEP1R1 / RFU, BIVM-ERCC5 /// ERCC5 / Fold change vs veh, BIVM-ERCC5 /// ERCC5 / RFU, ILF3 / Fold change vs veh, ILF3 / RFU 11762660_at / Fold change /veh 11762660_at / RFU VCAN (11757783_s_at) / Fold change /veh VCAN (11757783_s_at) / RFU DDX43 (11728927_at) / Fold change /veh DDX43 (11728927_at) / RFU KRT8 (11758188_x_at) / Fold change /veh KRT8 (11758188_x_at) / RFU NKD1 (11759106_at) / Fold change /veh NKD1 (11759106_at) / RFU SRD5A1 (11742802_a_at) / Fold change /veh SRD5A1 (11742802_a_at) / RFU TPSAB1 /// TPSB2 (11721975_s_at) / Fold change /veh TPSAB1 /// TPSB2 (11721975_s_at) / RFU GSTM3 (11746129_a_at) / Fold change /veh GSTM3 (11746129_a_at) / RFU IL23R (11737362_x_at) / Fold change /veh IL23R (11737362_x_at) / RFU TMEM51 (11727254_a_at) / Fold change /veh TMEM51 (11727254_a_at) / RFU PIWIL2 (11732686_x_at) / Fold change /veh PIWIL2 (11732686_x_at) / RFU ORM1 (11744905_x_at) / Fold change /veh ORM1 (11744905_x_at) / RFU CCDC152 (11743942_at) / Fold change /veh CCDC152 (11743942_at) / RFU ECM1 (11717891_a_at) / Fold change /veh ECM1 (11717891_a_at) / RFU IL23R (11748794_a_at) / Fold change /veh IL23R (11748794_a_at) / RFU TNFAIP8L3 (11732012_x_at) / Fold change /veh TNFAIP8L3 (11732012_x_at) / RFU MBOAT4 (11741988_at) / Fold change /veh MBOAT4 (11741988_at) / RFU 11764193_at / Fold change /veh 11764193_at / RFU TMEM53 (11763286_at) / Fold change /veh TMEM53 (11763286_at) / RFU MAGEB2 (11727129_at) / Fold change /veh MAGEB2 (11727129_at) / RFU TMEM200A (11744735_a_at) / Fold change /veh TMEM200A (11744735_a_at) / RFU CCDC152 (11751479_a_at) / Fold change /veh CCDC152 (11751479_a_at) / RFU FAM211A (11726209_a_at) / Fold change /veh FAM211A (11726209_a_at) / RFU RGS16 (11746705_a_at) / Fold change /veh RGS16 (11746705_a_at) / RFU VCAN (11755009_s_at) / Fold change /veh VCAN (11755009_s_at) / RFU RHOB (11743442_s_at) / Fold change /veh RHOB (11743442_s_at) / RFU RGS16 (11720943_a_at) / Fold change /veh RGS16 (11720943_a_at) / RFU RGS16 (11720944_at) / Fold change /veh RGS16 (11720944_at) / RFU, VPS4B / Fold change vs veh, VPS4B / RFU, CREB1 / Fold change vs veh, CREB1 / RFU, DNAJC13 / Fold change vs veh, DNAJC13 / RFU, GNAQ / Fold change vs veh, GNAQ / RFU, CDK5R1 / Fold change vs veh, CDK5R1 / RFU, ZRANB3 / Fold change vs veh, ZRANB3 / RFU, CUL4A / Fold change vs veh, CUL4A / RFU, CCNY / Fold change vs veh, CCNY / RFU, UFL1 / Fold change vs veh, UFL1 / RFU, COG3 / Fold change vs veh, COG3 / RFU, DIAPH2 / Fold change vs veh, DIAPH2 / RFU, SKA2 / Fold change vs veh, SKA2 / RFU, AFF3 / Fold change vs veh, AFF3 / RFU, LMF1 / Fold change vs veh, LMF1 / RFU, IPO11 / Fold change vs veh, IPO11 / RFU, DFFB / Fold change vs veh, DFFB / RFU, FOXP1 / Fold change vs veh, FOXP1 / RFU, CARD8 / Fold change vs veh, CARD8 / RFU, STRN3 / Fold change vs veh, STRN3 / RFU, ADK / Fold change vs veh, ADK / RFU, RASSF2 / Fold change vs veh, RASSF2 / RFU, WIPF1 / Fold change vs veh, WIPF1 / RFU, LARP1B / Fold change vs veh, LARP1B / RFU, RASA1 / Fold change vs veh, RASA1 / RFU, RB1 / Fold change vs veh, RB1 / RFU, PPFIA1 / Fold change vs veh, PPFIA1 / RFU, MAT2A / Fold change vs veh, MAT2A / RFU, CCT5 / Fold change vs veh, CCT5 / RFU, WDR92 / Fold change vs veh, WDR92 / RFU, CUX1 / Fold change vs veh, CUX1 / RFU, TTC7A / Fold change vs veh, TTC7A / RFU, TMEM135 / Fold change vs veh, TMEM135 / RFU, DEPTOR / Fold change vs veh, DEPTOR / RFU, CPM / Fold change vs veh, CPM / RFU, DNAJB6 / Fold change vs veh, DNAJB6 / RFU, CACNA2D3 / Fold change vs veh, CACNA2D3 / RFU, DTX4 / Fold change vs veh, DTX4 / RFU, TFCP2 / Fold change vs veh, TFCP2 / RFU, GMCL1 /// GMCL1P1 / Fold change vs veh, GMCL1 /// GMCL1P1 / RFU, AEBP2 / Fold change vs veh, AEBP2 / RFU, SNHG1 /// SNORD22 /// SNORD25 /// SNORD26 /// SNORD27 /// SNORD28 /// SNORD29 /// SNORD31 / Fold change vs veh, SNHG1 /// SNORD22 /// SNORD25 /// SNORD26 /// SNORD27 /// SNORD28 /// SNORD29 /// SNORD31 / Fold change (Aza/veh), C12orf56 (ProbeSet 11735607_a_at) / Fold change (ACY-1035/veh), C12orf56 (ProbeSet 11735607_a_at) / Fold change (Aza/veh), FGFR1OP (ProbeSet 11751329_s_at) / Fold change (ACY-1035/veh), FGFR1OP (ProbeSet 11751329_s_at) / Fold change (Aza/veh), VPS36 (ProbeSet 11739960_a_at) / Fold change (ACY-1035/veh), VPS36 (ProbeSet 11739960_a_at) / RFU SYPL1 (11715823_x_at) / Fold change /veh SYPL1 (11715823_x_at) / RFU IGFBP7 (11715501_s_at) / Fold change /veh IGFBP7 (11715501_s_at) / RFU REEP3 (11722064_at) / Fold change /veh REEP3 (11722064_at) / RFU IGLL1 (11728026_x_at) / Fold change /veh IGLL1 (11728026_x_at): dose or concentration left out as unconfirmed. Conditions: MV-4-11 cells, 48 hours.

These results are taken from PMC5218480 (PLoS ONE, 2017).

Molecules are shown by their SMILES.

For `Nc1ccc(-c2cccs2)cc1NC(=O)c1ccc2c(c1)cc(C1CC1)n2CCN1CCOCC1` [ACY-1035], the “RFU RGS16 (11720943_a_at)” value was 70.47 RFU.
